Test results: PMC8748493, “Helical structure motifs made searchable for functional peptide design” (Nature Communications, 2022)
Where no end group is shown, it is not given here.

Tests used:
[1] = system: Candida albicans SC5314; settings: SC5314, 24 h
Description: (§1) Contrasting to the simulation results of W3_p1 and W3_p2, W3_db5 has only one Trp (W3) inserted into the bacterial membrane by the end of 1 μs simulation (Supplementary Movie 1 and Supplementary Fig. 3). […] Experiments are performed in pentaplicate and MIC90 is determined as the majority results of the 5 replicates (see “Methods”). It is worth mentioning that we could reproduce the reported MIC90 values for three published AMPs when using the same culture protocol to culture E. coli ATCC 25922. […] The latter result is consistent with the MD-based natural insertion results (Supplementary Fig. 3).
(§2) To measure the antimicrobial activity of peptides, MICs were determined by the broth-dilution assay as described in Clinical and Laboratory Standards Institute (CLSI) documents M27-A3 for yeasts[63] and M07-A9 for bacteria[64] with minor modifications. Briefly, E. coli ATCC 25922 and C. albicans SC5314 were recovered from frozen stock by growing overnight at 37 °C on LB (Luria-Bertani) and YPD (Yeast Extract-Peptone-Dextrose) agar plates, separately. A single colony of E. coli was inoculated into 5 ml LB medium and grown overnight at 37 °C with shaking at 220 rpm. Cells were then diluted into MHB (Mueller–Hinton broth) at 1:100, and grew until the optical density at 600 nm (OD600) reached 0.4 to 0.8. For C. albicans SC5314, a single colony was inoculated in YPD broth and grown overnight at 30 °C with shaking at 180 rpm. Cells from the overnight culture were subcultured into fresh YPD and grew to mid-log phase. Finally, E. coli and C. albicans cells obtained from the above-described were diluted into MHB and LYM, a modified RPMI 1640 medium[65] to a concentration of ~5 × 10^5 cells/ml and ~4 × 10^4 cells/ml, respectively. To determine the MIC values, one hundred microliters of cells was placed in each well of a clear bottom 96-well microplate, followed by independently adding 100 μl peptides with different concentrations (in MHB or LYM). The final concentrations in the wells were 120, 60, 30, 15, 7.5, 3.75, and 1.88 μg/ml for peptides, ~2.5 × 10^5 cells/ml for E. coli and ~2 × 10^4 cells/ml for C. albicans. The plate was incubated at 37 °C with shaking at 220 rpm for 18 h (E. coli) and at 180 rpm for 24 h (C. albicans). The OD600 values were measured using a iMark^TM Microplate Absorbance Reader (Bio-Rad). The MIC90 value was determined by 90% reduction in growth compared with that of the peptide-free growth control. Experiments were performed in pentaplicate, and MIC90 was determined as the majority value out of 5 repeats.

[2] = system: Escherichia coli ATCC 25922; settings: ATCC 25922, 18 h; for E. coli ATCC 25922 killed in the MIC90 experiments: 30
Description: as §1, §2

[3] = system: human RBCs; assay type: cell-based
Description: The hemolytic toxicity was determined by the hemolysis against human RBCs as in previous publication. First, RBCs from healthy donors were mixed with EDTA in the collecting tubes to inhibit the coagulation. Then the RBCs were washed for three repeats as follows—centrifugation at RCF 800 × g for 10 min, removal of the supernatant, and resuspension with PBS buffer. Such washed RBCs stock was finally diluted with a PBS buffer to be the 10% (v/v) RBCs solution for assays. Then total eight samples of various final concentrations (240, 120, 60, 30, 15, 7.5, 3.75, and 1.88 μg/ml) for each AMP in 96-well microplate were prepared by mixing 10% RBCs and diluted AMP solutions, respectively, at ratio 1:1 (v/v) into final volume 200 μl. All samples were placed under the condition of 37 °C for 1 h and then centrifuged at RCF 800 g for 10 min. Finally, all these supernatants from samples and controls were picked out for the measurement of optical density at the 450 nm wavelength. The data processing was performed to calculate the hemolytic percentage defined as [Asample − Acontrol−]/[Acontrol+ − Acontrol−], where Acontrol+ and Acontrol− are the measurement at wavelength 450 nm for the positive and negative controls, that are 100 μl 10% RBCs suspended in 100 μl PBS buffer with and without 2% (v/v) Triton X-100 (a known detergent to lyse the RBCs), respectively. The final hemolytic percentage for AMPs at various concentrations was determined by the mean values of three repeated experiments, and MHC5 value, defined as the minimal concentration of AMPs leading to at least 5% hemolysis of RBCs, can be determined.

[4] = Circular dichroism, helicity percentage by DichroWeb; assay type: physicochemical; settings: CD spectra 190 to 260 nm
From the text: We found W3_db5 adopts a higher helicity than W3_n2 that is found to be more helical than W3_n1 (Fig. 5), where W3_n1 has a helicity closest to Tat, a popular cell-penetrating peptide known to take a random coil structure. This low helicity is consistent with the fact that the “WGN WGG W” stretch in W3_n1 takes mostly coil and sheet structures in its original PDB file (PDB ID: 4F54). The online software DichroWeb[44] provides a helicity percentage prediction for Tat, W3_n1, W3_n2, W3_db5, W3_p1, W3_p2, and CM15 based on their spectra data over the wavelength 190 to 260 nm wavelength −6.5, 2.0, 18.3, 60.2, 57.8, 51.2, and 54%, respectively.
Fig. 5 The CD spectra from 190 to 260 nm for all the examined peptides in the study where CM15[1],[50] is a known helical AMP and Tat, a cell-penetrating peptide (YGRKKRRQRRR) extracted from the transactivating transcriptional activator, is in a random coil structure. All the experimental data are provided as a Source data file.

[5] = system: Escherichia coli ATCC 25922; settings: E. coli ATCC 25922; cited from earlier work
Description: Contrasting to the simulation results of W3_p1 and W3_p2, W3_db5 has only one Trp (W3) inserted into the bacterial membrane by the end of 1 μs simulation (Supplementary Movie 1 and Supplementary Fig. 3). To further examine the bactericidal and anti-fungal activities of these AMPs, we measure the minimal inhibitory concentration (MIC90) at which the growth of 90% of the pathogenic fungus Candida albicans SC5314 and Escherichia coli ATCC 25922 can be inhibited. Experiments are performed in pentaplicate and MIC90 is determined as the majority results of the 5 replicates (see “Methods”). It is wor ...

[6] = cited from earlier work
From the text: It should be carefully noted that helicity percentage is also concentration-dependent. NMR-resolved structures are usually determined at a concentration of several mM, while CD spectra measure at a few tens of μM. It has been reported by several studies that the same helical peptide resolved by NMR (at high concentration) has a higher helicity percentage than that of the same measured by CD (at a lower concentration). For instance, an intragenic AMP (PDB ID: 6VLA) has a helicity percentage of 94% according to its NMR-resolved structure but 59% by CD[48]. Similarly, an AMP from Whiteleg shrimp ...

Substance | MIC90 vs. C. albicans [1] | MIC90 vs. E. coli [2] | reported MIC [5] | also measured
KKWLKWLKWLKKK [W3_p2] | 7.5 µg/mL | 15 µg/mL |  | MHC5 [3]: 90 µg/mL
KKWKCWARWRLKK [W3_db5] | 3.75 µg/mL | 30 µg/mL |  | hemolysis reduction of human RBCs as compared to templates W3-p1 and W3-p2 [3]: 20–40 folds
KWKLFKKIGAVLKVL-NH2 (C-terminus assumed) [CM15] |  |  | 4.0 µg/mL | helicity percentage (DichroWeb, from CD spectra) [4]: 54%; helicity by NMR [6]: 80%; helicity percentage by CD [6]: 65%
KKWKDWESWRLKK [W3_n2] |  | >>120 μg/ml |  | E. coli ATCC 25922 killed in the MIC90 experiments [2]: 9.5%
GLLKKIKWLL-NH2 (C-terminus assumed) [Anoplin-R5KT8W] |  |  | 15.1 µg/mL | 
KKWRKWLKWLAKK [W3_p1] | 7.5 µg/mL | 15 µg/mL |  | MHC5 [3]: 120 µg/mL
KKWGNWGGWRLKK [W3_n1] |  | >>120 μg/ml |  | E. coli ATCC 25922 killed in the MIC90 experiments [2]: 2.5%
FKRIVQRIKDFLR-NH2 (C-terminus assumed) [FK13] |  | 25 µg/mL | 27.5 µg/mL | 
